Laboratory results from PubChem BioAssay (NCI).
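In this assay, cells in 96-well plates receive the compound at five concentrations for 48 hours. Endpoints are linearly interpolated between the surrounding concentrations. TGI: concentration producing complete growth inhibition.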

Legend:
Experiment in all cases: DTP human tumour cell line panel, 48 h
786-0 renal = system: 786-0 renal
A498 renal = system: A498 renal
A549 NSCLC = system: A549 NSCLC
ACHN renal = system: ACHN renal
BT-549 breast = system: BT-549 breast
CAKI-1 renal = system: CAKI-1 renal
CCRF-CEM leukemia = system: CCRF-CEM leukemia
COLO 205 colon = system: COLO 205 colon
DU-145 prostate = system: DU-145 prostate
EKVX NSCLC = system: EKVX NSCLC
HCC-2998 colon = system: HCC-2998 colon
HCT-116 colon = system: HCT-116 colon
HCT-15 colon = system: HCT-15 colon
HL-60(TB) leukemia = system: HL-60(TB) leukemia
HOP-62 NSCLC = system: HOP-62 NSCLC
HOP-92 NSCLC = system: HOP-92 NSCLC
HS 578T breast = system: HS 578T breast
HT29 colon = system: HT29 colon
IGROV1 ovarian = system: IGROV1 ovarian
K-562 leukemia = system: K-562 leukemia
KM12 colon = system: KM12 colon
LOX IMVI melanoma = system: LOX IMVI melanoma
M14 melanoma = system: M14 melanoma
MALME-3M melanoma = system: MALME-3M melanoma
MCF7 breast = system: MCF7 breast
MDA-MB-231 breast = system: MDA-MB-231 breast
MDA-MB-435 = system: MDA-MB-435
MOLT-4 leukemia = system: MOLT-4 leukemia
NCI-H226 lung = system: NCI-H226 lung
NCI-H23 lung = system: NCI-H23 lung
NCI-H460 lung = system: NCI-H460 lung
NCI-H522 lung = system: NCI-H522 lung
NCI/ADR-RES ovarian = system: NCI/ADR-RES ovarian
OVCAR-3 ovarian = system: OVCAR-3 ovarian
OVCAR-4 ovarian = system: OVCAR-4 ovarian
OVCAR-5 ovarian = system: OVCAR-5 ovarian
OVCAR-8 ovarian = system: OVCAR-8 ovarian
PC-3 prostate = system: PC-3 prostate
RPMI-8226 leukemia = system: RPMI-8226 leukemia
RXF 393 renal = system: RXF 393 renal
SF-268 CNS = system: SF-268 CNS
SF-295 CNS = system: SF-295 CNS
SF-539 CNS = system: SF-539 CNS
SK-MEL-2 melanoma = system: SK-MEL-2 melanoma
SK-MEL-28 melanoma = system: SK-MEL-28 melanoma
SK-MEL-5 melanoma = system: SK-MEL-5 melanoma
SK-OV-3 ovarian = system: SK-OV-3 ovarian
SN12C renal = system: SN12C renal
SNB-19 CNS = system: SNB-19 CNS
SNB-75 CNS = system: SNB-75 CNS
SW-620 colon = system: SW-620 colon
T-47D breast = system: T-47D breast
TK-10 renal = system: TK-10 renal
U251 CNS = system: U251 CNS
UACC-257 melanoma = system: UACC-257 melanoma
UACC-62 melanoma = system: UACC-62 melanoma
UO-31 renal = system: UO-31 renal
SR leukemia = system: SR leukemia

Measured: TGI

C1=CC2C(C3CN(c4ccccc4)N=C13)C1C3C4C=CC21C=CC43 (stereo not given)
> 100 µM: 786-0 renal | A498 renal | A549 NSCLC | ACHN renal | BT-549 breast | CAKI-1 renal | CCRF-CEM leukemia | COLO 205 colon | DU-145 prostate | EKVX NSCLC | HCC-2998 colon | HCT-116 colon | HCT-15 colon | HL-60(TB) leukemia | HOP-62 NSCLC | HOP-92 NSCLC | HS 578T breast | HT29 colon | IGROV1 ovarian | K-562 leukemia | KM12 colon | LOX IMVI melanoma | M14 melanoma | MALME-3M melanoma | MCF7 breast | MDA-MB-231 breast | MDA-MB-435 | MOLT-4 leukemia | NCI-H226 lung | NCI-H23 lung | NCI-H460 lung | NCI-H522 lung | NCI/ADR-RES ovarian | OVCAR-3 ovarian | OVCAR-4 ovarian | OVCAR-5 ovarian | OVCAR-8 ovarian | PC-3 prostate | RPMI-8226 leukemia | RXF 393 renal | SF-268 CNS | SF-295 CNS | SF-539 CNS | SK-MEL-2 melanoma | SK-MEL-28 melanoma | SK-MEL-5 melanoma | SK-OV-3 ovarian | SN12C renal | SNB-19 CNS | SNB-75 CNS | SW-620 colon | T-47D breast | TK-10 renal | U251 CNS | UACC-257 melanoma | UACC-62 melanoma | UO-31 renal

CC(C)(C)OC(=O)N1C(=O)C2CCCC21 (stereo not given)
> 100 µM: 786-0 renal | A498 renal | A549 NSCLC | ACHN renal | BT-549 breast | CCRF-CEM leukemia | COLO 205 colon | DU-145 prostate | HCC-2998 colon | HCT-116 colon | HCT-15 colon | HL-60(TB) leukemia | HOP-62 NSCLC | HOP-92 NSCLC | HS 578T breast | HT29 colon | IGROV1 ovarian | KM12 colon | LOX IMVI melanoma | M14 melanoma | MDA-MB-231 breast | MDA-MB-435 | MOLT-4 leukemia | NCI-H226 lung | NCI-H23 lung | NCI-H460 lung | NCI/ADR-RES ovarian | OVCAR-3 ovarian | OVCAR-4 ovarian | OVCAR-5 ovarian | OVCAR-8 ovarian | PC-3 prostate | RPMI-8226 leukemia | RXF 393 renal | SF-268 CNS | SK-MEL-2 melanoma | SK-MEL-28 melanoma | SK-MEL-5 melanoma | SK-OV-3 ovarian | SN12C renal | SNB-19 CNS | SNB-75 CNS | SR leukemia | SW-620 colon | T-47D breast | U251 CNS | UACC-257 melanoma | UACC-62 melanoma
